In patent US6007834A (priority 1997, dated 1999):

Columns and labels:
[1] = cited from earlier work
[2] = Blood plasma melatonin concentrations and pharmacokinetics in healthy male volunteers, by radioimmunoassay (cross-over study); type: in vivo, human; conditions: for Tmax: human, plasma
Experimental: An open randomized, four treatment (treatments A, B, C and D below), cross-over study involving 8 healthy male volunteers was carried out. Before drug administration, the subjects were fasted overnight for at least 10 hours. The administered formulations were as follows:
A: 100 μl water, intranasal (placebo);

nasal mucosa [3] = conditions: in vivo
nasal mucosa [4] = conditions: propylene glycol in place of ethanol; cited from earlier work

SMILES: COc1ccc2[nH]cc(CCNC(C)=O)c2c1 [melatonin, N-acetyl-5-methoxytryptamine]
- solubility in water [1]: low solubility
- Cmax, times higher than that resulting from the oral dose ([2]; 0.2 mg nasal vs 2.5 mg oral): about 5 times
- amount of melatonin absorbed, 0.2 mg nasal dose vs 2.5 mg oral dose ([2]; 0.2 mg nasal vs 2.5 mg oral): About the same amount
- amount of melatonin absorbed, 0.4 mg nasal dose vs 0.2 mg nasal dose ([2]; 0.4 mg nasal vs 0.2 mg nasal): proportional
- Cmax, times higher than that resulting from the oral dose ([2]; 0.4 mg nasal vs 2.5 mg oral): ~11 times
- dose proportionality of peak plasma concentrations (Cmax) ([2]; 0.2 and 0.4 mg nasal doses): proportional
- Tmax ([2]; po, 2.5 mg): 1.5 h
- Tmax ([2]; 0.2 and 0.4 mg nasal doses): < 0.167 h
- rate of absorption ([2]; nasally administered): absorbed extremely rapidly

SMILES: OCC(O)CO [glycerol]
- toxicity towards the epithelial membrane (epithelial membrane): does not exert toxicity towards the epithelial membrane
- irritation of the nasal mucosa (nasal mucosa [3]): does not lead to irritation of the nasal mucosa

SMILES: CC(O)CO (stereo not drawn) [propylene glycol]
- toxicity to the nasal mucosa (nasal mucosa [4]): adversely affects the nasal mucosa
